Here are results for one compound from ChEMBL document CHEMBL5678818, “Discovery of potent SOS1 inhibitors that block RAS activation via disruption of the RAS-SOS1 interaction” (Proc Natl Acad Sci U S A, 2019).

Molecules are shown by their SMILES.

In assay [1] the target is T1, Serine/threonine-protein kinase 36 (Homo sapiens) (UniProt Q9NRP7).
T1 sequence (whole entry): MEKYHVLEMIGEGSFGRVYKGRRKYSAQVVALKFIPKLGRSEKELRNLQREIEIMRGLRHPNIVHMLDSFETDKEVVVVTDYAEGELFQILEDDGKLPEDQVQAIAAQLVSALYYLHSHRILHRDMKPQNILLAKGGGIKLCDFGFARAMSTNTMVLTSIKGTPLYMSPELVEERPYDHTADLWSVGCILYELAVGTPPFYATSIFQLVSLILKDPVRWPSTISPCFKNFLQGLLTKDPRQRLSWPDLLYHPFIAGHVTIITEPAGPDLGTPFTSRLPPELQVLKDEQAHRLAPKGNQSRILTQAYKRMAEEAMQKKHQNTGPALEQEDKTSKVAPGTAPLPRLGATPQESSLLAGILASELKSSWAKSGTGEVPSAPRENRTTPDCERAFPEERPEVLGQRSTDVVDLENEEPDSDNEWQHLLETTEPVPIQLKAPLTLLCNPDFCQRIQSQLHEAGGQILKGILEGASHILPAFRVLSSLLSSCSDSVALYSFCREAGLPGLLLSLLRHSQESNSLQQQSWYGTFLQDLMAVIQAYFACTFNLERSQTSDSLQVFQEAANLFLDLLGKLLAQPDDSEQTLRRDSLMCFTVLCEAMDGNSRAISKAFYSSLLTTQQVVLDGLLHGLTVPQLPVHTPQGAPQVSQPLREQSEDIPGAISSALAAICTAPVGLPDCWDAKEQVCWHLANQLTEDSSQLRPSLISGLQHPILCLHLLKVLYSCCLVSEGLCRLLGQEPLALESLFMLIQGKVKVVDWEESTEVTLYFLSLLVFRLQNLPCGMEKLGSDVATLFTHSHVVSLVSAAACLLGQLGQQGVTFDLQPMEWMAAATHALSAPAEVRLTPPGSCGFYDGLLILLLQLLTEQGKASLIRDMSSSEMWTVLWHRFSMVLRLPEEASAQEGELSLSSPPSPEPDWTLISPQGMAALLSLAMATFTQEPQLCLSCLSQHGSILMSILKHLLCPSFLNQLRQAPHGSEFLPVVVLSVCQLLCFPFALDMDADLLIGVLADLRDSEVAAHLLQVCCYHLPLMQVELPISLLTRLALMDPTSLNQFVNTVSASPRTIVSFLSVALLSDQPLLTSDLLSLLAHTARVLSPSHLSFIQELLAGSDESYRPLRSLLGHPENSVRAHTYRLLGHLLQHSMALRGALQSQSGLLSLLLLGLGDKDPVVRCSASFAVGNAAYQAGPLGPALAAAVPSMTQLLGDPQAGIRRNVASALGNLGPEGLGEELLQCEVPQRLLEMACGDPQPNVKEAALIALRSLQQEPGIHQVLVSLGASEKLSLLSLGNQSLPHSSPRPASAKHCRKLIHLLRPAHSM
Description: Inhibition of STK36 (unknown origin) assessed as residual activity at 100 nM by KINOMEscan analysis relative to control.

The target of assay [2] is SRSF protein kinase 1 (Homo sapiens) (UniProt Q96SB4). Nature of the assay: Inhibition of SRPK1 (unknown origin) assessed as residual activity at 100 nM by KINOMEscan analysis relative to control.
In assay [3] the target is NT-3 growth factor receptor (Homo sapiens) (UniProt Q16288). Nature of the assay: Inhibition of TRKC (unknown origin) assessed as residual activity at 100 nM by KINOMEscan analysis relative to control.
For assay [4], the target named is T2, Ephrin type-A receptor 3 (Homo sapiens) (UniProt P29320).
T2 sequence (whole entry): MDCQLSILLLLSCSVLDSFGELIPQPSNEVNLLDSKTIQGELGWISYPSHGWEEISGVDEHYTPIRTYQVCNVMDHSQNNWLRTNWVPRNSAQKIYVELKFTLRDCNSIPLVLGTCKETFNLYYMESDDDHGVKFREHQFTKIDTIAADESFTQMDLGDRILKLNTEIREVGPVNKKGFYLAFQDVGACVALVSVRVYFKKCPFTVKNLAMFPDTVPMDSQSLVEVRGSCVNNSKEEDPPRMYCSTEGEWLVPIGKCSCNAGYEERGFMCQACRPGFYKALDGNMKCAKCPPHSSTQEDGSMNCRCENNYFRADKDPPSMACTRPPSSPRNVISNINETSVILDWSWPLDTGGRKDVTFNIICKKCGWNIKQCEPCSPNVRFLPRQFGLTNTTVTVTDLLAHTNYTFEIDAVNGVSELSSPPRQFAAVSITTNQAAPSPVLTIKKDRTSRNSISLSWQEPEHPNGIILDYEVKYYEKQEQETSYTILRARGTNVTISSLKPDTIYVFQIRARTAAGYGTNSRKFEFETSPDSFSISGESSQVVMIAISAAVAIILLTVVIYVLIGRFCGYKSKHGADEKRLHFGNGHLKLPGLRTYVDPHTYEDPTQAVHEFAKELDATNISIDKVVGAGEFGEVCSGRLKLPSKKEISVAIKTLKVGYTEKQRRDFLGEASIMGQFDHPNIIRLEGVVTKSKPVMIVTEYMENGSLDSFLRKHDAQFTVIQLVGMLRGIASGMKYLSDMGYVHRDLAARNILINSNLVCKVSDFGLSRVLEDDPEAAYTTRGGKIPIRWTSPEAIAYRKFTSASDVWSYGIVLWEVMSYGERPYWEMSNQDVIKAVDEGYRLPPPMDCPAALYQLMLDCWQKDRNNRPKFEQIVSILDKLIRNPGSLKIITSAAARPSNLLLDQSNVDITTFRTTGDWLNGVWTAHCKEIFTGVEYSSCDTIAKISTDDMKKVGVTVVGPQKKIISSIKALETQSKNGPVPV
Nature of the assay: Inhibition of EPHA3 (unknown origin) assessed as residual activity at 100 nM by KINOMEscan analysis relative to control.

The subject of assay [5] is Tyrosine-protein kinase ABL1 (Homo sapiens), P00519 [T315I]. Nature of the assay: Inhibition of nonphosphorylated ABL1 T315I mutant (unknown origin) assessed as residual activity at 100 nM by KINOMEscan analysis relative to control.
The target of assay [6] is Phosphatidylinositol 4,5-bisphosphate 3-kinase catalytic subunit gamma isoform (Homo sapiens) (UniProt P48736). Description: Inhibition of PIK3CG (unknown origin) assessed as residual activity at 100 nM by KINOMEscan analysis relative to control.
Assay [7] deals with Cyclin-dependent kinase 17 (Homo sapiens) (UniProt Q00537). Description: Inhibition of PCTK2 (unknown origin) assessed as residual activity at 100 nM by KINOMEscan analysis relative to control.
For assay [8], the system named is Mast/stem cell growth factor receptor Kit (Homo sapiens), P10721 [D816H]. Nature of the assay: Inhibition of KIT D816H mutant (unknown origin) assessed as residual activity at 100 nM by KINOMEscan analysis relative to control.
Assay [9] concerns the target Mitogen-activated protein kinase 11 (Homo sapiens) (UniProt Q15759). Description: Inhibition of p38-beta (unknown origin) assessed as residual activity at 100 nM by KINOMEscan analysis relative to control.

Sequence of Phosphatidylinositol 4,5-bisphosphate 3-kinase catalytic subunit gamma isoform (Homo sapiens) (P48736 whole entry, looked up, canonical isoform): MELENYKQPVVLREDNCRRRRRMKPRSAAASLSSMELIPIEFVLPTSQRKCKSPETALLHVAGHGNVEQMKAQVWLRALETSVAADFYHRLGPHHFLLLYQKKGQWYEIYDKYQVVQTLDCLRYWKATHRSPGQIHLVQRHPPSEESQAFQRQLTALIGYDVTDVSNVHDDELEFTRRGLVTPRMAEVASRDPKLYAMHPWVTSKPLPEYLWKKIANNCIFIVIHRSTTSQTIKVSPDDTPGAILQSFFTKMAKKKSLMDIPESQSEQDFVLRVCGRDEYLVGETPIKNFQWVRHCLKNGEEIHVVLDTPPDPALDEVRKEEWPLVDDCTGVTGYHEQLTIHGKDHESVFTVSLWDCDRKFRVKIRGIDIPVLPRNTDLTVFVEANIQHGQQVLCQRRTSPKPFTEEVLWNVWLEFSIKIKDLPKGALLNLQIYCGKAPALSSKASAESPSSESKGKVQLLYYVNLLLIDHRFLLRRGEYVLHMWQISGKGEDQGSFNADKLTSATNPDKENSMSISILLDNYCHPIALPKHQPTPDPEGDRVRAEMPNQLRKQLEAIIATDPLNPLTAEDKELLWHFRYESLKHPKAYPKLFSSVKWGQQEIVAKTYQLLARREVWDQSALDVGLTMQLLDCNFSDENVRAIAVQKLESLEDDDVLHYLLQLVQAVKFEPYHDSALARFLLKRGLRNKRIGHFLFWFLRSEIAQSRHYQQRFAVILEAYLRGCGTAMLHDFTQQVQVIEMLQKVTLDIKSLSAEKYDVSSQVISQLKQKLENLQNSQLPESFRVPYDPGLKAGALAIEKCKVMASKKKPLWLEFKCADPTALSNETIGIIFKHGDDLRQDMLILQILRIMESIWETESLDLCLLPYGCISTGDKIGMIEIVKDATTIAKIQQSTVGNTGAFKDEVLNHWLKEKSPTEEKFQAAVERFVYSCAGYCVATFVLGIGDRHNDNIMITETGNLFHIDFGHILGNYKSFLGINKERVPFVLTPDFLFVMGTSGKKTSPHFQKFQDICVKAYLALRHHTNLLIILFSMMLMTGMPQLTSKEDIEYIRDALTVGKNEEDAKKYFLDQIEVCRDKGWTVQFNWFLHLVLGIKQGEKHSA
Sequence of Mitogen-activated protein kinase 11 (Homo sapiens) (Q15759 whole entry): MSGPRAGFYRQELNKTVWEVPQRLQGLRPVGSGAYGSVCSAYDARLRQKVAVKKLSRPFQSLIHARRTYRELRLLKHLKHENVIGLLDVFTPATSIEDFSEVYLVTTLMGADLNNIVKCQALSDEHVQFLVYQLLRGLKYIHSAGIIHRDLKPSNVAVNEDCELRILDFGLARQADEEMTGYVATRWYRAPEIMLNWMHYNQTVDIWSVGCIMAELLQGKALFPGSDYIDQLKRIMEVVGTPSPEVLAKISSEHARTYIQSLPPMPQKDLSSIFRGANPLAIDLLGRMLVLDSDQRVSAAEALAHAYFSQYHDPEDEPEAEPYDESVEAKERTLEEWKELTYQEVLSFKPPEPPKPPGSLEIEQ
Sequence of NT-3 growth factor receptor (Homo sapiens) (Q16288 32-839 limits assumed): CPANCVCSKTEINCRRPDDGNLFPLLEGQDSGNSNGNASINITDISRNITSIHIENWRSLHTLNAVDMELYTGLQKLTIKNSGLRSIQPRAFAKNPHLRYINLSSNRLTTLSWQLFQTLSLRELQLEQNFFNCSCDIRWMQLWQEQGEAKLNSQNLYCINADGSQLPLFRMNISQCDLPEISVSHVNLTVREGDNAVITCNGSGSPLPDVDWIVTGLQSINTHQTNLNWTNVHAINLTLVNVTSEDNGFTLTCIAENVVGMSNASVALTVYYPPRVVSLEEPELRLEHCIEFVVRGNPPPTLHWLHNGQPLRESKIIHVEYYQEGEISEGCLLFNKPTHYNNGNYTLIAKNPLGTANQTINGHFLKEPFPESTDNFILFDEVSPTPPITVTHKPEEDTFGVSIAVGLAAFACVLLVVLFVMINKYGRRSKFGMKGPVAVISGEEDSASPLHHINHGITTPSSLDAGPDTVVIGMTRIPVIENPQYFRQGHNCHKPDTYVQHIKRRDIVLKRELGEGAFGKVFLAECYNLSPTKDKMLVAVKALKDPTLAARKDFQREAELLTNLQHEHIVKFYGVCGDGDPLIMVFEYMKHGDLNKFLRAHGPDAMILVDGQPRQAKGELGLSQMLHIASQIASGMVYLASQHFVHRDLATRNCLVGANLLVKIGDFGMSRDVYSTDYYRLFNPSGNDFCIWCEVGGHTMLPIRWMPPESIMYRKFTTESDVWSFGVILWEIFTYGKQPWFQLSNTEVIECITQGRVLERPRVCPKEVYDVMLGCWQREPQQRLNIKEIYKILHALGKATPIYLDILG
Sequence of Cyclin-dependent kinase 17 (Homo sapiens) (Q00537 whole entry, looked up): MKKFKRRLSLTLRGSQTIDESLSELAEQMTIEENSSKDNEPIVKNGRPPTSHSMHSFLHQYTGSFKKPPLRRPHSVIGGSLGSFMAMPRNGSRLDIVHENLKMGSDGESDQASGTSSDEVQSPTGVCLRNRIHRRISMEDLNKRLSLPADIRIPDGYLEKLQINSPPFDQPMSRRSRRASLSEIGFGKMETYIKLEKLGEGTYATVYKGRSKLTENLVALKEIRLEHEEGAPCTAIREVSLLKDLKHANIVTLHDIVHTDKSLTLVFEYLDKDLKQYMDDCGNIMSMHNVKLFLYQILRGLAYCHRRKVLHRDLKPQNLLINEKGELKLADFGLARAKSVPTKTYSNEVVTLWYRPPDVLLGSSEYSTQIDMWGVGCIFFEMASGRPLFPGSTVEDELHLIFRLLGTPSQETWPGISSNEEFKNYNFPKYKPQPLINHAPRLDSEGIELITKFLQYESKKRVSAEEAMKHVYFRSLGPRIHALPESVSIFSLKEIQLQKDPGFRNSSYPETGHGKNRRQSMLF
Sequence of Mast/stem cell growth factor receptor Kit (Homo sapiens), P10721 [D816H] (P10721 whole entry D816H): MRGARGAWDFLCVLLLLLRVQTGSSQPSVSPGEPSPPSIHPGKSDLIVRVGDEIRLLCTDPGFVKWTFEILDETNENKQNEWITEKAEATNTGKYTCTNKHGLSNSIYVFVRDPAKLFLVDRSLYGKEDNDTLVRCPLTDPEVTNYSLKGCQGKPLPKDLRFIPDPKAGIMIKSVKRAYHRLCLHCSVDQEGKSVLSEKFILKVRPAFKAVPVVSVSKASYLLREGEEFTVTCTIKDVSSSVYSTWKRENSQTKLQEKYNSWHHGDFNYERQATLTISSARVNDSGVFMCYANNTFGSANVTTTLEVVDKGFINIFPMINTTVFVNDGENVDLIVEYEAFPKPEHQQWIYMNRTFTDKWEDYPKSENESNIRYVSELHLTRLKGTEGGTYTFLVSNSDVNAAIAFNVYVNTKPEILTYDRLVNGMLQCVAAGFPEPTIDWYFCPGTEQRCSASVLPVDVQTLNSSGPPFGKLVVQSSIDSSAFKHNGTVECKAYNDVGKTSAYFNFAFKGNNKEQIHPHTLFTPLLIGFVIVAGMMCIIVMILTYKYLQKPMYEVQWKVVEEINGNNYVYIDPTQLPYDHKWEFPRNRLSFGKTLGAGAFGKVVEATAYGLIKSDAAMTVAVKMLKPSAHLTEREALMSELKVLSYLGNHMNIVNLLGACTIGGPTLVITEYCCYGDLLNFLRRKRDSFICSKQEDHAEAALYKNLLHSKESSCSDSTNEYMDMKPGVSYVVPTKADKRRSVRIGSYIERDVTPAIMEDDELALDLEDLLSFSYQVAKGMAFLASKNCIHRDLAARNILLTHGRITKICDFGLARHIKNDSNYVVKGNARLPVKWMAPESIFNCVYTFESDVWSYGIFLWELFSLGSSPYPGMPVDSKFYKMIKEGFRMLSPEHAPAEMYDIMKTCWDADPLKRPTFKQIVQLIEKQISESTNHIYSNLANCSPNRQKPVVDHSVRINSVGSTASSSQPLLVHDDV
Sequence of SRSF protein kinase 1 (Homo sapiens) (Q96SB4 whole entry): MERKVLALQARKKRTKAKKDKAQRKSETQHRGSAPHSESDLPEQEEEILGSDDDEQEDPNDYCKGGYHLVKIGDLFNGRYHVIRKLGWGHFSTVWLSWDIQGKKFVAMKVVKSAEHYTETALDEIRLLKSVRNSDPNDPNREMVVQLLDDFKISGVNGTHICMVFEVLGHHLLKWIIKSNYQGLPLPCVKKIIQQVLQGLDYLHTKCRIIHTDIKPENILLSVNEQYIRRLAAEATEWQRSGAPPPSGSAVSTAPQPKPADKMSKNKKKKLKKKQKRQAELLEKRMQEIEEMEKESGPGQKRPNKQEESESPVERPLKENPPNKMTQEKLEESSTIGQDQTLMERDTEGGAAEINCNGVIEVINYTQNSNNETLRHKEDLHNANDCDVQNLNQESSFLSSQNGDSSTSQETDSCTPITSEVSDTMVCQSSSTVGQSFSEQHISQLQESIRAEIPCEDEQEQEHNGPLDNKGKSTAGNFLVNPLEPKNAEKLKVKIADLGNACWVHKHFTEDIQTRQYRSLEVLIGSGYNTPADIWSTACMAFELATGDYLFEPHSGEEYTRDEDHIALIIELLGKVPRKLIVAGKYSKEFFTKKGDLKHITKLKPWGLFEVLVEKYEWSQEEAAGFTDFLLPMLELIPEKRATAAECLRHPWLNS

Take `COc1cc2ncnc(N[C@H](C)c3cccc4ccccc34)c2cc1OC`: the Activity turned out to be 80% in assay [1]; 95% in assay [2]; 89% in assay [3]; 81% in [4]; 100% in assay [5]; 78% in [6]. For the same compound, the results for the Activity in assay [7], in [8] and in [9] were 86%, 89% and 81%, respectively.
